# From EP2030621A1, “Novel substituted pyrimidines as cysteine protease inhibitors” (GLAXO GROUP LIMITED, priority 2007, dated 2009)
# pIC50: −log10 of the molar value. Structures can show the parent of a compound that is named as a salt.
# System: Plasmodium falciparum parasite
# Assay: Whole cell assay: whole cell activity against the parasite
# Assay type: cell-based
# Details: not given
# Text: Compounds can be evaluated for whole cell actvity against the Plasmadium falciparum parasite according to the procedure described in Sijwali S. and Rosenthal P. J., (2004) Proceedings of the National Academy of Sciences of the United States of America (PNAS) 101(13), 4384-4389 (see in particular "Measurement of Parasite Growth rates and Inhibitor Sensitivity" on page 4385); IC50 values can be calculated as described in Singh A. and Rosenthal P. J., (2001) Antimicrobial Agents and Chemotherapy 45(3), 949-951 (see in particular page 950, first column); synchronised parasites can be prepared as described in Divo A. A. et al., (1985) Protozool. 32, 59-64. 3) In vitro models to evaluate activity against bone metastasis
row,SMILES,pIC50
1,"CN1CCN(C2CCN(Cc3ccc(C(=O)NN(c4nc(C#N)ncc4Cl)C4CCCCC4)cc3)CC2)CC1 [Example 40, N'-(5-chloro-2-cyano-4-pyrimidinyl)-N'-cyclohexyl-4-{[4-(4-methyl-1-piperazinyl)-1-piperidinyl]methyl}benzohydrazide]",7.82 to 8.60

# Same assay, conditions: Plasmodium falciparum
row,SMILES,pIC50
1,"CN1CCN(C(=O)C2CCN(Cc3ccc(C(=O)NN(c4nc(C#N)ncc4Br)C4CCCC4)cc3)CC2)CC1 [Example 9, N'-(5-bromo-2-cyano-4-pyrimidinyl)-N'-cyclopentyl-4-({4-[(4-methyl-1-piperazinyl)carbonyl]-1-piperidinyl}methyl)benzohydrazide trifluoroacetate]",7.82 to 8.60
2,"CN1CCN(C2CCN(Cc3ccc(C(=O)NN(c4nc(C#N)ncc4Br)C4CCCCC4)cc3)CC2)CC1 [Example 17, N'-(5-bromo-2-cyano-4-pyrimidinyl)-N'-cyclohexyl-4-{[4-(4-methyl-1-piperazinyl)-1-piperidinyl]methyl}benzohydrazide trifluoroacetate]",7.82 to 8.60
3,"CCN(Cc1ccc(C(=O)NN(c2nc(C#N)ncc2Cl)C2CCCC2)cc1)C1CCCCC1 [Example 69, N'-(5-chloro-2-cyano-4-pyrimidinyl)-4-{[cyclohexyl(ethyl)amino]methyl}-N'-cyclopentylbenzohydrazide trifluoroacetate]",7.82 to 8.60
4,"C[C@@H]1CCC[C@H]1N(NC(=O)c1ccc(F)cc1)c1nc(C#N)ncc1Br (racemic) [Example 43, N'-(5-bromo-2-cyano-4-pyrimidinyl)-4-fluoro-N'-[(1R,2R+1S,2S))-2-methylcyclopentyl]benzohydrazide trifluoroacetate]",6.82 to 7.82
5,"CN1CCCC(CN2CCN(Cc3cccc(C(=O)NN(c4nc(C#N)ncc4Br)C4CCCCC4)c3)CC2)C1 (centres unmarked) [Example 27, N'-(5-bromo-2-cyano-4-pyrimidinyl)-N'-cyclohexyl-3-({4-[(1-methyl-3-piperidinyl)methyl]-1-piperazinyl}methyl)benzohydrazide trifluoroacetate]",7.82 to 8.60
6,"CN1CCCC(CN2CCN(Cc3ccc(C(=O)NN(c4nc(C#N)ncc4Br)C4CCOCC4)cc3)CC2)C1 (centres unmarked) [Example 31, N'-(5-Bromo-2-cyano-4-pyrimidinyl)-4-({4-[(1-methyl-3-pipendinyl)methyl]-1-piperazinyl}methyl)-N'-(tetrahydro-2H-pyran-4-yl)benzohydrazide trifluoroacetate]",6.82 to 7.82
7,"CCN(C)Cc1ccc(C(=O)NN(c2nc(C#N)ncc2Cl)C2CCCC2)cc1 [Example 74, N'-(5-chloro-2-cyano-4-pyrimidinyl)-N'-cyclopentyl-4-{[ethyl(methyl)amino]methyl}benzohydrazide trifluoroacetate]",6.82 to 7.82
8,"CN(CC(=O)N(C)C)Cc1ccc(C(=O)NN(c2nc(C#N)ncc2Cl)C2CCCC2)cc1 [Example 60, N^2-[(4-{[2-(5-chloro-2-cyano-4-pyrimidinyl)-2-cyclopentylhydrazino]carbonyl}phenyl)methyl]-N^1,N^1,N^2-trimethylglycinamide trifluoroacetate]",6.82 to 7.82
9,"N#Cc1ncc(Br)c(N(NC(=O)c2ccc(CN3CCC(N4CCOCC4)CC3)cc2)C2CCCC2)n1 [Example 6, N'-(5-bromo-2-cyano-4-pyrimidinyl)-N'-cyclopentyl-4-{[4-(4-morpholinyl)-1-piperidinyl]methyl}benzohydrazide trifluoroacetate]",6.82 to 7.82
10,"CC1CCC(N(NC(=O)c2ccc(CN3CCN(CC4CCN(C)CC4)CC3)cc2)c2nc(C#N)ncc2Br)C1 (mixture of isomers) [Example 5, N'-(5-bromo-2-cyano-4-pyrimidinyl)-N'-(3-methylcyclopentyl)-4-({4-[(1-methyl-4-piperidinyl)methyl]-1-piperazinyl}methyl)benzohydrazide trifluoroacetate]",7.82 to 8.60
11,"CN1CCN(Cc2ccc(-c3ccc(C(=O)NN(c4nc(C#N)ncc4Br)C4CCCCC4)cn3)cc2)CC1 [Example 44, N'-(5-bromo-2-cyano-4-pyrimidinyl)-N'-cyclohexyl-6-{4-[(4-methyl-1-piperazinyl)methyl]phenyl}-3-pyridinecarbohydrazide trifluoroacetate]",6.82 to 7.82
12,"CC(C)N(Cc1ccc(C(=O)NN(c2nc(C#N)ncc2Cl)C2CCCC2)cc1)C1CCCCC1 [Example 75, N'-(5-chloro-2-cyano-4-pyrimidinyl)-4-{[cyclohexyl(1-methylethyl)amino]methyl}-N'-cyclopentylbenzohydrazide trifluoroacetate]",6.82 to 7.82
13,"CCN(CCCNC(=O)OC(C)(C)C)Cc1ccc(C(=O)NN(c2nc(C#N)ncc2Cl)C2CCCC2)cc1 [Example 81, 1,1-dimethylethyl {3-[[(4-{[2-(5-chloro-2-cyano-4-pyrimidinyl)-2-cyclopentylhydrazino]carbonyl}phenyl)methyl](ethyl)amino]propyl}carbamate]",7.82 to 8.60
14,"N#Cc1ncc(Br)c(N(NC(=O)c2ccc(CN3CCC(O)CC3)cc2)C2CCCCC2)n1 [Example 21, N'-(5-bromo-2-cyano-4-pyrimidinyl)-N'-cyclohexyl-4-[(4-hydroxy-1-piperidinyl)methyl]benzohydrazide trifluoroacetate]",6.82 to 7.82
15,"CN(C)Cc1ccc(C(=O)NN(c2nc(C#N)ncc2Cl)C2CCCC2)cc1 [Example 54, N'-(5-chloro-2-cyano-4-pyrimidinyl)-N'-cyclopentyl-4-[(dimethylamino)methyl]benzohydrazide trifluoroacetate]",6.82 to 7.82
16,"CN(CCc1ccccc1)Cc1ccc(C(=O)NN(c2nc(C#N)ncc2Cl)C2CCCC2)cc1 [Example 62, N'-(5-chloro-2-cyano-4-pyrimidinyl)-N'-cyclopentyl-4-{[methyl(2-phenylethyl)amino]methyl}benzohydrazide trifluoroacetate]",6.82 to 7.82
17,"CCCN(C)Cc1ccc(C(=O)NN(c2nc(C#N)ncc2Cl)C2CCCC2)cc1 [Example 55, N'-(5-chloro-2-cyano-4-pyrlmidinyl)-N'-cycyopentyl-4-{[methyl(propyl)amino]methyl}benzohydrazide trifluoroacetate]",6.82 to 7.82
18,"CC1CCC(N(NC(=O)c2ccc(CN3CCN(C)CC3)cc2)c2nc(C#N)ncc2Br)C1 (mixture of isomers) [Example 26, N'-(5-bromo-2-cyano-4-pyrimidinyl)-N'-(3-methylcyclopentyl)-4-[(4-methyl-1-piperazinyl)methyl]benzohydrazide trifluoroacetate]",6.82 to 7.82
19,"CN1CCN(Cc2ccc(-c3cncc(C(=O)NN(c4nc(C#N)ncc4Br)C4CCCC4)c3)cc2)CC1 [Example 45, N'-(5-bromo-2-cyano-4-pyrimidinyl)-N'-cyclopentyl-5-{4-[(4-methyl-1-piperazinyl)methyl]phenyl}-3-pyridinecarbohydrazide trifluoroacetate]",6.82 to 7.82
20,"CN(CCC(O)c1ccccc1)Cc1ccc(C(=O)NN(c2nc(C#N)ncc2Cl)C2CCCC2)cc1 (centres unmarked) [Example 59, N'-(5-chloro-2-cyano-4-pyrimidinyl)-N'-cyclopentyl-4-{[(3-hydroxy-3-phenylpropyl)(methyl)amino]methyl}benzohydrazide trifluoroacetate]",6.82 to 7.82
21,"CN1CCC(CN2CCN(Cc3ccc(C(=O)NN(c4nc(C#N)ncc4Br)C4CCOCC4)cc3)CC2)CC1 [Example 30, N'-(5-Bromo-2-cyano-4-pyrimidiny)-4-({4-[(1-methyl-4-piperidinyl)methyl]-1-piperazinyl}methyl)-N'-(tetrahydro-2H-pyran-4-yl)benzohydrazide trifluoroacetate]",6.82 to 7.82
22,"CCCCN(C)Cc1ccc(C(=O)NN(c2nc(C#N)ncc2Cl)C2CCCC2)cc1 [Example 57, 4-{[butyl(methyl)amino]methyl}-N'-(5-chloro-2-cyano-4-pyrimidinyl)-N'-cyclopentylbenzohydrazide trifluoroacetate]",6.82 to 7.82
23,"CN(Cc1ccc(C(=O)NN(c2nc(C#N)ncc2Cl)C2CCCC2)cc1)C1CCC2(CC1)OCC(C)(C)CO2 [Example 65, N'-(5-chloro-2-cyano-4-pyrimidinyl)-N'-cyclopentyl-4-{[(3,3-dimethyl-1,5-dioxaspiro[5.5]undec-9-yl)(methyl)amino]methyl}benzohydrazide trifluoroacetate]",6.82 to 7.82
24,"CN1CCN(C2CCN(Cc3cccc(C(=O)NN(c4nc(C#N)ncc4Br)C4CCCCC4)c3)CC2)CC1 [Example 20, N'-(5-bromo-2-cyano-4-pyrimidinyl)-N'-cyclohexyl-3-{[4-(4-methyl-1-piperazinyl)-1-piperidinyl]methyl}benzohydrazide trifluoroacetate]",7.82 to 8.60
25,"CC(C)N(Cc1ccc(C(=O)NN(c2nc(C#N)ncc2Cl)C2CCCC2)cc1)C(C)C [Example 72, trifluoroacetate]",7.82 to 8.60
26,"CC1CCC(N(NC(=O)c2ccc(CN3CCC(N4CCN(C)CC4)CC3)cc2)c2nc(C#N)ncc2Br)C1 (centres unmarked) [Example 4, N'-(5-bromo-2-cyano-4-pyrimidinyl)-N'-(3-methylcyclopentyl)-4-{[4-(4-methyl-1-piperazinyl)-1-piperidinyl]methyl}benzohydrazide trifluoroacetate]",> 9.00
27,"CC(=O)N1CCC(N(NC(=O)c2ccc(CN3CCC(C(=O)N4CCN(C)CC4)CC3)cc2)c2nc(C#N)ncc2Br)CC1 [Example 49, N'-(1-acetyl-4-piperidinyl)-N'-(5-bromo-2-cyano-4-pyrimidinyl)-4-({4-[(4-methyl-1-piperazinyl)carbonyl]-1-piperidinyl}methyl)benzohydrazide trifluoroacetate]",6.82 to 7.82

# Same assay, conditions: dihydrochloride
row,SMILES,pIC50
1,"CN1CCN(C2CCN(Cc3ccc(C(=O)NN(c4nc(C#N)ncc4Cl)C4CCCCC4)cc3)CC2)CC1 [Example 41, N'-(5-chloro-2-cyano-4-pyrimidinyl)-N'-cyclohexyl-4-{[4-(4-methyl-1-piperazinyl)-1-piperidinyl]methyl}benzohydrazide dihydrochloride]",8.60 to 9.00
